# Test results: ChEMBL document CHEMBL5036347, “Design of the naphthyl-diarylpyrimidines as potent non-nucleoside reverse transcriptase inhibitors (NNRTIs) via structure-based extension into the entrance channel” (Eur J Med Chem, 2021)
# pEC50: −log10 of the molar value.
# Legend:
# [1] = Water solubility of compound at pH 7.4 at 0.1 to 10 mg by HPLC-UV analysis; type: physicochemical; details: dose 0.1-10 mg
# [2] = Water solubility of compound at pH 7 at 0.1 to 10 mg by HPLC-UV analysis; type: physicochemical; details: dose 0.1-10 mg
# [3] = Water solubility of compound at pH 2 at 0.1 to 10 mg by HPLC-UV analysis; type: physicochemical; details: dose 0.1-10 mg
# [4] = test system: Human immunodeficiency virus 1; assay: Anti-HIV activity against HIV-1 IIIB infected in human MT4 cells assessed as reduction in virus-induced cytopathic effect incubated for 5 days by MTT assay; type: functional, organism-based; details: Human immunodeficiency virus 1, IIIB, MT4, 120 h
# [5] = test system: Human immunodeficiency virus 1; assay: Antiviral activity against HIV1 harboring reverse transcriptase E138K mutant infected in human MT4 cells assessed as protection against virus-induced cytopathic effect incubated for 5 days by MTT assay; type: functional, organism-based; details: Human immunodeficiency virus 1, MT4, 120 h
# [6] = test system: Human immunodeficiency virus 1; assay: Antiviral activity against HIV1 harboring reverse transcriptase Y181C mutant infected in human MT4 cells assessed as protection against virus-induced cytopathic effect incubated for 5 days by MTT assay; type: functional, organism-based; details: Human immunodeficiency virus 1, MT4, 120 h
# [7] = test system: Human immunodeficiency virus 1; assay: Antiviral activity against HIV1 harboring reverse transcriptase K103N mutant infected in human MT4 cells assessed as protection against virus-induced cytopathic effect incubated for 5 days by MTT assay; type: functional, organism-based; details: Human immunodeficiency virus 1, MT4, 120 h
Structure (SMILES),solubility [1] [µg/mL],solubility [2] [µg/mL],solubility [3] [µg/mL],pEC50 [4],pEC50 [5],pEC50 [6],pEC50 [7]
CCNc1cc(Oc2c(OC)cc3cc(C#N)ccc3c2OC)nc(Nc2ccc(C#N)cc2)n1.O=C(O)CC(O)(CC(=O)O)C(=O)O,1,< 1,1,,,,
CC(=O)O.COc1cc2cc(C#N)ccc2c(OC)c1Oc1cc(N)nc(Nc2ccc(C#N)cc2)n1,< 1,< 1,< 1,,,,
CCNc1cc(Oc2c(OC)cc3cc(C#N)ccc3c2OC)nc(Nc2ccc(C#N)cc2)n1.O=CO,2,< 1,< 1,,,,
COc1cc2cc(C#N)ccc2c(OC)c1Oc1cc(N2CCC(O)C2)nc(Nc2ccc(C#N)cc2)n1.O=CO (configuration not stated),3,< 1,< 1,,,,
Cc1ccnc2c1NC(=O)c1cccnc1N2C1CC1 [NEVIRAPINE],,,,4.66,6.48,5.15,5.07
COc1cc2cc(C#N)ccc2c(OC)c1Oc1cc(N)nc(Nc2ccc(C#N)cc2)n1.O=S(=O)(O)O,72,< 1,< 1,,,,
COc1cc2cc(C#N)ccc2c(OC)c1Oc1cc(N)nc(Nc2ccc(C#N)cc2)n1.O=C(O)C(F)(F)F,3,1,< 1,,,,
CCNc1cc(Oc2c(OC)cc3cc(C#N)ccc3c2OC)nc(Nc2ccc(C#N)cc2)n1.Cl,11,< 1,9,,,,
COc1cc2cc(C#N)ccc2c(OC)c1Oc1cc(N2CCC(O)C2)nc(Nc2ccc(C#N)cc2)n1.Cl (configuration not stated),2,< 1,< 1,,,,
COc1cc2cc(C#N)ccc2c(OC)c1Oc1cc(N2CCC(O)C2)nc(Nc2ccc(C#N)cc2)n1.I (configuration not stated),9,< 1,< 1,,,,
COc1cc2cc(C#N)ccc2c(OC)c1Oc1cc(N)nc(Nc2ccc(C#N)cc2)n1.O=C(O)CC(O)(CC(=O)O)C(=O)O,4,< 1,< 1,,,,
CCNc1cc(Oc2c(OC)cc3cc(C#N)ccc3c2OC)nc(Nc2ccc(C#N)cc2)n1.O=S(=O)(O)O,115,4,9,,,,
CCNc1cc(Oc2c(OC)cc3cc(C#N)ccc3c2OC)nc(Nc2ccc(C#N)cc2)n1.CS(=O)(=O)O,1,< 1,< 1,,,,
COc1cc2cc(C#N)ccc2c(OC)c1Oc1cc(N2CCC(O)C2)nc(Nc2ccc(C#N)cc2)n1.CS(=O)(=O)O (configuration not stated),2,< 1,< 1,,,,
Br.CCNc1cc(Oc2c(OC)cc3cc(C#N)ccc3c2OC)nc(Nc2ccc(C#N)cc2)n1,1,1,1,,,,
CCNc1cc(Oc2c(OC)cc3cc(C#N)ccc3c2OC)nc(Nc2ccc(C#N)cc2)n1.O=C(O)C(F)(F)F,< 1,< 1,< 1,,,,
COc1cc2cc(C#N)ccc2c(OC)c1Oc1cc(N)nc(Nc2ccc(C#N)cc2)n1.Cc1ccc(S(=O)(=O)O)cc1,2,< 1,2,,,,
COc1cc2cc(C#N)ccc2c(OC)c1Oc1cc(N)nc(Nc2ccc(C#N)cc2)n1.O=C(O)/C=C\C(=O)O,28,7,13,,,,
COc1cc2cc(C#N)ccc2c(OC)c1Oc1cc(N)nc(Nc2ccc(C#N)cc2)n1.I,1,< 1,< 1,,,,

Structure (SMILES),solubility [1] [µg/mL],solubility [2] [µg/mL],solubility [3] [µg/mL],pEC50 [4],pEC50 [5],pEC50 [6],pEC50 [7]
COc1cc2cc(C#N)ccc2c(OC)c1Oc1cc(N)nc(Nc2ccc(C#N)cc2)n1.O=C(O)C(O)C(O)C(=O)O,29,< 1,< 1,,,,
CCNc1cc(Oc2c(OC)cc3cc(C#N)ccc3c2OC)nc(Nc2ccc(C#N)cc2)n1.Cc1ccc(S(=O)(=O)O)cc1,12,< 1,< 1,,,,
COc1cc2cc(C#N)ccc2c(OC)c1Oc1cc(N2CCC(O)C2)nc(Nc2ccc(C#N)cc2)n1.O=C(O)/C=C\C(=O)O (configuration not stated),5,< 1,< 1,,,,
CCNc1cc(Oc2c(OC)cc3cc(C#N)ccc3c2OC)nc(Nc2ccc(C#N)cc2)n1.I,1,< 1,1,,,,
COc1cc2cc(C#N)ccc2c(OC)c1Oc1cc(N)nc(Nc2ccc(C#N)cc2)n1.O=CO,2,< 1,1,,,,
CC(=O)O.CCNc1cc(Oc2c(OC)cc3cc(C#N)ccc3c2OC)nc(Nc2ccc(C#N)cc2)n1,19,< 1,1,,,,
Br.COc1cc2cc(C#N)ccc2c(OC)c1Oc1cc(N2CCC(O)C2)nc(Nc2ccc(C#N)cc2)n1 (configuration not stated),< 1,< 1,< 1,,,,
Br.COc1cc2cc(C#N)ccc2c(OC)c1Oc1cc(N)nc(Nc2ccc(C#N)cc2)n1,< 1,< 1,< 1,,,,
COc1cc2cc(C#N)ccc2c(OC)c1Oc1cc(N)nc(Nc2ccc(C#N)cc2)n1.Cl,84,1,6,,,,
COc1cc2cc(C#N)ccc2c(OC)c1Oc1cc(N2CCC(O)C2)nc(Nc2ccc(C#N)cc2)n1.Cc1ccc(S(=O)(=O)O)cc1 (configuration not stated),13,6,8,,,,
COc1cc2cc(C#N)ccc2c(OC)c1Oc1cc(N2CCC(O)C2)nc(Nc2ccc(C#N)cc2)n1.O=C(O)CC(O)(CC(=O)O)C(=O)O (configuration not stated),< 2,< 1,< 1,,,,
CC(=O)O.COc1cc2cc(C#N)ccc2c(OC)c1Oc1cc(N2CCC(O)C2)nc(Nc2ccc(C#N)cc2)n1 (configuration not stated),3,< 1,< 1,,,,
COc1cc2cc(C#N)ccc2c(OC)c1Oc1cc(N)nc(Nc2ccc(C#N)cc2)n1.CS(=O)(=O)O,11,< 1,4,,,,
CCNc1cc(Oc2c(OC)cc3cc(C#N)ccc3c2OC)nc(Nc2ccc(C#N)cc2)n1.O=C(O)C(O)C(O)C(=O)O,29,< 1,1,,,,
COc1cc2cc(C#N)ccc2c(OC)c1Oc1cc(N2CCC(O)C2)nc(Nc2ccc(C#N)cc2)n1.O=C(O)C(F)(F)F (configuration not stated),1,< 1,< 1,,,,
COc1cc2cc(C#N)ccc2c(OC)c1Oc1cc(N2CCC(O)C2)nc(Nc2ccc(C#N)cc2)n1.O=C(O)C(O)C(O)C(=O)O (configuration not stated),3,< 1,< 1,,,,
CCNc1cc(Oc2c(OC)cc3cc(C#N)ccc3c2OC)nc(Nc2ccc(C#N)cc2)n1.O=C(O)/C=C\C(=O)O,47,1,2,,,,
COc1cc2cc(C#N)ccc2c(OC)c1Oc1cc(N2CCC(O)C2)nc(Nc2ccc(C#N)cc2)n1.O=S(=O)(O)O (configuration not stated),2,< 1,< 1,,,,
